The results in this text go back to paper PMC7531004, “Discovery of gramicidin A analogues with altered activities by multidimensional screening of a one-bead-one-compound library” (Nature Communications, 2020).

The conditions of data set [1]: cell viability/%. Put shortly:
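P388 cells at 1 × 10^4 cells/mL (final) were exposed to library peptides (stocks diluted 250-fold in RPMI1640/10% FBS) for 92 h at 37 °C, 5% CO2. Viable cells were counted by WST-1/1-methoxy PMS (4 h), absorbance 415 nm, and expressed as cell viability (%).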

Data set [2] has as its system Streptococcus pyogenes SSI-9. Kind of data set: Antibacterial activity assay of bead-derived peptides (three concentrations). The conditions noted are these: S. pyogenes, bead-derived peptide solution, three concentrations. The arrangement: key: +++: inhibition by the 640-fold diluted peptide solution; ++: inhibition by the 160-fold diluted solution; +: inhibition by the 40-fold diluted solution; -: no inhibition. Type of data set: cell-based. An outline of the steps: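 Library peptide stock applied undiluted, 4-fold and 16-fold diluted in DMSO to S. pyogenes SSI-9 (2 × 10^5 CFU) in cation-adjusted Mueller Hinton broth with 5% laked horse blood. After 18 h at 37 °C, growth judged by visible cell precipitation.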

Data set [3] can be described thus: H+/Na+ transport assay of bead-derived peptides (one-point).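 Also: relative to parent gramicidin A activity set to 1.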 Also noted: key: relative activity; mean of two control wells = 1.00. As to conditions: bead-derived peptide solution, EYPC/EYPG LUVs. Type of data set: biochemical. Put shortly: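 One-point screen: peptide + pyranine-loaded LUVs, 30 min RT with vortexing, 96-well. Read-out is fluorescence intensity scaled as 100 × (Ix – I0)/(Imax – I0). Imax from Triton X-100, I0 from untreated vesicles, and the mean of the two control wells is set to 1.00.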

Molecules are shown by their SMILES. Where a SMILES comes first, the peptide text is derived from it. [ ]: non-standard residue; d: D form. The star is where a group is joined. NHCH2CH2OH = OCCN*; For = O=C*

For orientation: viability means a per cent measure of how many cells are alive, often set against a control. In data set [1], `CNC(=O)C[C@@H](NC(=O)[C@H](C)NC(=O)[C@@H](CC(C)C)NC(=O)[C@H](C)NC(=O)CNC(=O)[C@@H](NC=O)C(C)C)C(=O)N[C@H](C(=O)N[C@H](CC(C)C)C(=O)N[C@@H](Cc1c[nH]c2ccccc12)C(=O)N[C@H](CC(C)C)C(=O)N[C@@H](Cc1c[nH]c2ccccc12)C(=O)N[C@@H](C(=O)N[C@@H](Cc1c[nH]c2ccccc12)C(=O)N[C@@H](C(=O)N[C@@H](Cc1c[nH]c2ccccc12)C(=O)NCCO)C(C)C)C(C)C)C(C)C` [compound 7119] (For-VGA[dL]A[dD](NHMe)V[dL]W[dL]W[dV]W[dV]W-NHCH2CH2OH) yielded a viability of 100%. Besides, the antibacterial activity entry in data set [2] is recorded as “-”. For the same compound, in data set [3], the “H+/Na+ transport activity normalized against the value of 1 (1.00)” value was determined as 1.15.
The like results for `CC(C)C[C@@H](NC(=O)[C@H](C)NC(=O)CNC(=O)[C@@H](NC=O)C(C)C)C(=O)N[C@@H](C)C(=O)N[C@@H](C(=O)N[C@H](C(=O)N[C@@H](C(=O)N[C@@H](Cc1c[nH]c2ccccc12)C(=O)N[C@H](CC(C)C)C(=O)N[C@@H](Cc1c[nH]c2ccccc12)C(=O)N[C@@H](C(=O)N[C@@H](Cc1c[nH]c2ccccc12)C(=O)N[C@@H](C(=O)N[C@@H](Cc1c[nH]c2ccccc12)C(=O)NCCO)C(C)C)[C@H](C)O)C(C)C)C(C)C)C(C)C` [compound 87] (For-VGA[dL]A[dV]V[dV]W[dL]W[dT]W[dV]W-NHCH2CH2OH) were, in that order, 100%, “++” and 1.12.
The like results for `CC(C)C[C@@H](NC(=O)[C@@H](NC(=O)[C@H](NC(=O)[C@H](C)NC(=O)[C@H](NC(=O)[C@H](C)NC(=O)CNC(=O)[C@@H](NC=O)C(C)C)[C@H](C)O)C(C)C)C(C)C)C(=O)N[C@@H](Cc1c[nH]c2ccccc12)C(=O)N[C@@H](C(=O)N[C@@H](Cc1c[nH]c2ccccc12)C(=O)N[C@@H](C(=O)N[C@@H](Cc1c[nH]c2ccccc12)C(=O)N[C@@H](C(=O)N[C@@H](Cc1c[nH]c2ccccc12)C(=O)NCCO)C(C)C)C(C)C)C(C)C` [compound 3019] (For-VGA[dT]A[dV]V[dL]W[dV]W[dV]W[dV]W-NHCH2CH2OH) were, in that order, 100%, “-” and 1.12.
The like results for `CC(C)C[C@@H](NC(=O)[C@H](C)NC(=O)CNC(=O)[C@@H](NC=O)C(C)C)C(=O)N[C@@H](C)C(=O)N[C@@H](C(=O)N[C@H](C(=O)N[C@@H](C(=O)N[C@@H](Cc1c[nH]c2ccccc12)C(=O)N[C@H](CC(C)C)C(=O)N[C@@H](Cc1c[nH]c2ccccc12)C(=O)N[C@H](CC(C)C)C(=O)N[C@@H](Cc1c[nH]c2ccccc12)C(=O)N[C@H](CC(C)C)C(=O)N[C@@H](Cc1c[nH]c2ccccc12)C(=O)NCCO)[C@H](C)O)C(C)C)C(C)C` [compound 1819] (For-VGA[dL]A[dV]V[dT]W[dL]W[dL]W[dL]W-NHCH2CH2OH) were, in that order, 100%, “+” and 1.22.
In turn, `CC(C)C[C@@H](NC(=O)[C@H](C)NC(=O)CNC(=O)[C@@H](NC=O)C(C)C)C(=O)N[C@@H](C)C(=O)N[C@@H](C(=O)N[C@H](C(=O)N[C@@H](C(=O)N[C@@H](Cc1c[nH]c2ccccc12)C(=O)N[C@H](CC(C)C)C(=O)N[C@@H](Cc1c[nH]c2ccccc12)C(=O)N[C@@H](C(=O)N[C@@H](Cc1c[nH]c2ccccc12)C(=O)N[C@@H](C(=O)N[C@@H](Cc1c[nH]c2ccccc12)C(=O)NCCO)C(C)C)C(C)C)C(C)C)C(C)C)[C@H](C)O` [compound 6549] (For-VGA[dL]A[dT]V[dV]W[dL]W[dV]W[dV]W-NHCH2CH2OH) had a viability in data set [1] of 100%. The antibacterial activity result in data set [2] was “-”. Further, the “H+/Na+ transport activity normalized against the value of 1 (1.00)” value in data set [3] is 1.07.
